Assay results reported in the NIST ThermoML archive (doi:10.1021/je900414p).
± gives the expanded uncertainty stated by the source.

Assay: xn = mol fraction of the nth substance listed
Settings: Liquid

CCOS(=O)(=O)[O-].CCn1cc[n+](C)c1 [1-ethyl-3-methylimidazolium ethyl sulfate] + CCO
mass density [kg/m3]
Settings	100 kPa	2500 kPa	5000 kPa	10000 kPa	15000 kPa	20000 kPa	25000 kPa	30000 kPa	35000 kPa
283.15 K, x1 = 0.05056	868.1 ± 0.64	870 ± 0.69	871.83 ± 0.74	875.33 ± 0.84	878.74 ± 0.93	882.02 ± 1	885.17 ± 1.1	888.22 ± 1.2	891.19 ± 1.3
283.15 K, x1 = 0.103	925.77 ± 0.56	927.45 ± 0.58	929.13 ± 0.6	932.41 ± 0.65	935.57 ± 0.68	938.63 ± 0.72	941.59 ± 0.76	944.47 ± 0.79	947.26 ± 0.81
283.15 K, x1 = 0.1247	946.96 ± 0.53	948.54 ± 0.54	950.16 ± 0.55	953.34 ± 0.58	956.4 ± 0.6	959.38 ± 0.62	962.25 ± 0.63	965.06 ± 0.64	967.8 ± 0.65
283.15 K, x1 = 0.2126	1015.49 ± 0.47	1016.98 ± 0.48	1018.48 ± 0.48	1021.37 ± 0.5	1024.17 ± 0.52	1026.89 ± 0.55	1029.52 ± 0.58	1032.11 ± 0.61	1034.62 ± 0.66
283.15 K, x1 = 0.2919	1063.41 ± 0.52	1064.67 ± 0.54	1066.03 ± 0.57	1068.69 ± 0.63	1071.27 ± 0.69	1073.82 ± 0.77	1076.29 ± 0.85	1078.72 ± 0.94	1081.08 ± 1.1
283.15 K, x1 = 0.3185	1076.89 ± 0.53	1078.19 ± 0.56	1079.51 ± 0.59	1082.11 ± 0.66	1084.66 ± 0.75	1087.15 ± 0.84	1089.57 ± 0.93	1091.95 ± 1.1	1094.27 ± 1.2
283.15 K, x1 = 0.4198	1120.15 ± 0.6	1121.36 ± 0.64	1122.61 ± 0.7	1125.05 ± 0.82	1127.44 ± 0.95	1129.77 ± 1.1	1132.05 ± 1.3	1134.29 ± 1.4	1136.48 ± 1.6
283.15 K, x1 = 0.4847	1142.52 ± 0.63	1143.68 ± 0.69	1144.88 ± 0.76	1147.23 ± 0.9	1149.51 ± 1.1	1151.78 ± 1.3	1153.99 ± 1.4	1156.16 ± 1.6	1158.29 ± 1.9
283.15 K, x1 = 0.5713	1167.9 ± 0.68	1169.02 ± 0.75	1170.16 ± 0.83	1172.41 ± 1	1174.61 ± 1.2	1176.78 ± 1.4	1178.91 ± 1.6	1181.01 ± 1.9	1183.08 ± 2.1
283.15 K, x1 = 0.6827	1194.68 ± 0.72	1195.76 ± 0.81	1196.85 ± 0.9	1199 ± 1.1	1201.12 ± 1.4	1203.21 ± 1.6	1205.24 ± 1.9	1207.27 ± 2.1	1209.25 ± 2.4
283.15 K, x1 = 0.7919	1216.13 ± 0.76	1217.15 ± 0.86	1218.19 ± 0.97	1220.26 ± 1.2	1222.32 ± 1.5	1224.34 ± 1.8	1226.31 ± 2	1228.28 ± 2.3	1230.19 ± 2.6
283.15 K, x1 = 0.9317	1237.97 ± 0.81	1238.92 ± 0.92	1239.94 ± 1.1	1241.93 ± 1.3	1243.92 ± 1.6	1245.88 ± 1.9	1247.81 ± 2.2	1249.69 ± 2.5	1251.56 ± 2.8
293.15 K, x1 = 0.05056	860.03 ± 0.66	861.91 ± 0.71	863.83 ± 0.76	867.52 ± 0.86	871.06 ± 0.97	874.47 ± 1.1	877.74 ± 1.2	880.91 ± 1.3	883.98 ± 1.4
293.15 K, x1 = 0.103	917.84 ± 0.57	919.6 ± 0.6	921.37 ± 0.62	924.78 ± 0.67	928.08 ± 0.72	931.25 ± 0.76	934.32 ± 0.8	937.28 ± 0.84	940.18 ± 0.87
293.15 K, x1 = 0.1247	939.1 ± 0.5	940.76 ± 0.55	942.46 ± 0.57	945.77 ± 0.6	948.96 ± 0.63	952.04 ± 0.65	955.03 ± 0.67	957.93 ± 0.69	960.74 ± 0.7
293.15 K, x1 = 0.2126	1007.62 ± 0.47	1009.27 ± 0.47	1010.81 ± 0.47	1013.8 ± 0.5	1016.71 ± 0.5	1019.53 ± 0.52	1022.26 ± 0.54	1024.93 ± 0.57	1027.53 ± 0.61
293.15 K, x1 = 0.2919	1055.3 ± 0.5	1056.61 ± 0.53	1058.04 ± 0.55	1060.8 ± 0.6	1063.5 ± 0.7	1066.12 ± 0.73	1068.67 ± 0.8	1071.18 ± 0.88	1073.62 ± 0.97
293.15 K, x1 = 0.3185	1069.32 ± 0.52	1070.62 ± 0.55	1071.98 ± 0.58	1074.68 ± 0.64	1077.32 ± 0.71	1079.89 ± 0.8	1082.37 ± 0.89	1084.82 ± 0.98	1087.22 ± 1.1
293.15 K, x1 = 0.4198	1112.7 ± 0.6	1113.96 ± 0.63	1115.24 ± 0.68	1117.75 ± 0.79	1120.22 ± 0.91	1122.63 ± 1.1	1124.97 ± 1.2	1127.27 ± 1.4	1129.54 ± 1.6
293.15 K, x1 = 0.4847	1135.13 ± 0.62	1136.31 ± 0.68	1137.55 ± 0.74	1139.97 ± 0.87	1142.34 ± 1	1144.68 ± 1.2	1146.94 ± 1.4	1149.19 ± 1.6	1151.37 ± 1.8
293.15 K, x1 = 0.5713	1160.59 ± 0.66	1161.75 ± 0.73	1162.92 ± 0.81	1165.25 ± 0.97	1167.52 ± 1.2	1169.75 ± 1.4	1171.93 ± 1.6	1174.07 ± 1.8	1176.19 ± 2
293.15 K, x1 = 0.6827	1187.41 ± 0.71	1188.51 ± 0.79	1189.64 ± 0.88	1191.86 ± 1.1	1194.04 ± 1.3	1196.18 ± 1.6	1198.27 ± 1.8	1200.33 ± 2.1	1202.37 ± 2.3
293.15 K, x1 = 0.7919	1208.95 ± 0.75	1210 ± 1	1211.08 ± 0.95	1213.21 ± 1.2	1215.31 ± 1.5	1217.38 ± 1.7	1219.4 ± 2	1221.4 ± 2.3	1223.38 ± 2.5
293.15 K, x1 = 0.9317	1230.93 ± 0.8	1231.9 ± 0.9	1232.97 ± 1	1235.05 ± 1.3	1237.08 ± 1.6	1239.09 ± 1.9	1241.05 ± 2.2	1242.97 ± 2.5	1244.9 ± 2.8
